Measurements: patent publication US6461834B1, “Clostripain catalyzed amidation of peptides” (Bionebraska, Inc., priority 1998, dated 2002)

Key:
clostripain [1] = target: T1, clostripain (Hathewaya histolytica, UniProt P09870); experiment: Inhibition of clostripain amidation activity by organic solvent (GLP-1(7-36)Ala-Phe-Ala-Hse substrate, HPLC); format: biochemical; conditions: 2 M ammonium acetate, pH 10.4, 45° C., maximal attained amidation level
T1 construct: This protease is a heterodimer; purchased Worthington
Procedure: Maximal attained amidation level in the presence of various organic solvents was determined with GLP-1(7-36)Ala-Phe-Ala-Hse (SEQ ID NO:1; 2 mg/mL) in 2.5 mM DTT, 1 mM calcium chloride, 2 M ammonium acetate, pH 10.4, at 45° C., with 20 μg clostripain in a 1 mL reaction. Aliquots of the reaction mixture were removed at regular time intervals, quenched with acetic acid and assayed by HPLC analysis on a reverse phase HPLC column.

clostripain [2] = target: T1, clostripain; experiment: Effect of organic solvent on clostripain proteolytic activity (N-Bz-Phe-Val-Arg-p-nitroanilide substrate, photometric initial rates); format: biochemical; conditions: varying amounts of organic solvent, otherwise as Table III
Procedure: A substrate solution (1 mL) of 2 mg N-Bz-Phe-Val-Arg-p-nitroanilide in 2.5 mM dithiothreitol, 1 mM calcium chloride, 50 mM Tricine buffer at pH 8.5 was incubated at room temperature with 10 μg of clostripain, in an aqueous solution containing 10% (v/v) of organic solvent. Initial rates were determined by photometric detection of the liberated […].
These reactions were repeated in the presence of varying amounts of organic solvent, and optimal concentrations for proteolytic activity were determined for propylene carbonate (10%), N,N-dimethylformamide (20%), trifluoroethanol (20%), and acetonitrile (20%).

[3] = format: physicochemical
[4] = system: GLP-1(7-36)Ala-Phe-Ala-Hse; experiment: Amidation by other Arg-specific proteases; format: biochemical; conditions: 1 M ammonium hydroxide, pH 10 and 8.5 (cathepsin B also pH 5.5), enzyme:substrate 1:50 to 1:100
Procedure: GLP-1(7-36)Ala-Phe-Ala-Hse (SEQ ID NO:1) (between 0.5 and 2 mg/mL) was dissolved in 1 M ammonium hydroxide at pH 10 and 8.5 and incubated individually with six different proteolytic enzymes, five of which have a specificity to cleave peptides at the carboxyl peptide bond of arginine residues, similar to that of clostripain. These included trypsin, thrombin, cathepsin B (also tested at pH 5.5), coagulation factor Xa, plasmin and papain. Papain is a thiol protease, albeit one which is not specific to arginyl bonds. […] Enzyme:substrate ratios were between 1:50 to 1:100 and protease specific additives were added where appropriate (e.g., calcium chloride).

Molecule | optimal concentration for proteolytic activity (clostripain [2]) | production of GLP-1(7-36)NH2 (reversed phase chromatography) [4] | further results
CC#N [Acetonitrile] | 20% |  | Extent of amidation (% of substrate converted) (clostripain [1]; 20% organic solvent): 18%
CN(C)C=O [Dimethylformamide, N,N-dimethylformamide] | 20% |  | 
CC1COC(=O)O1 (centres unmarked) [Propylene carbonate] | 10% |  | Extent of amidation (% of substrate converted) (clostripain [1]; 10% organic solvent): 29%
OCC(F)(F)F [Trifluoroethanol] |  |  | Extent of amidation (% of substrate converted) (clostripain [1]; 20% organic solvent): 9%
His-Ala-Glu-Gly-Thr-Phe-Thr-Ser-Asp- Val-Ser-Ser-Tyr-Leu-Glu-Gly-Gln-Ala-Ala-Lys-Glu-Phe-Ile-Ala-Trp-Leu- Val-Lys-Gly-Arg-NH2 [GLP-1(7-36)NH2] |  |  | formation of D-contaminants ([3]; in water, pH about 4 to 8.4, −20° C. to 45° C., similar period of time): essentially no formation of D-contaminants; degradation ([3]; pH 9.4): 9%; degradation into D-contaminants ([3]; pH 10.5): a substantial amount of the peptide was degraded into D-contaminants
thrombin |  | None of these proteases produced any GLP-1(7-36)NH2 | 
trypsin |  | None of these proteases produced any GLP-1(7-36)NH2 | 
papain: thiol protease which is not specific to arginyl bonds (protein, UniProt P00784 134-345, looked up) Papain: IPEYVDWRQKGAVTPVKNQGSCGSCWAFSAVVTIEGIIKIRTGNLNEYSEQELLDCDRRSYGCNGGYPWSALQLVAQYGIHYRNTYPYEGVQRYCRSREKGPYAAKTDGVRQVQPYNEGALLYSIANQPVSVVLEAAGKDFQLYRGGIFVGPCGNKVDHAVAAVGYGPNYILIKNSWGTGWGENGYIRIKRGTGNSYGVCGLYTSSFYPVKN |  | None of these proteases produced any GLP-1(7-36)NH2 | 
clostripain: extracellular thiol endoprotease from Clostridia, high specificity for Arg-Xaa peptide linkages (protein, UniProt P09870 51-181; P09870 191-526, looked up) Clostripain light chain: NKNQKVTIMYYCDADNNLEGSLLNDIEEMKTGYKDSPNLNLIALVDRSPRYSSDEKVLGEDFSDTRLYKIEHNKANRLDGKNEFPEISTTSKYEANMGDPEVLKKFIDYCKSNYEADKYVLIMANHGGGAR Clostripain heavy chain: AICWDDSNLDKNGEADCLYMGEISDHLTEKQSVDLLAFDACLMGTAEVAYQYRPGNGGFSADTLVASSPVVWGPGFKYDKIFDRIKAGGGTNNEDDLTLGGKEQNFDPATITNEQLGALFVEEQRDSTHANGRYDQHLSFYDLKKAESVKRAIDNLAVNLSNENKKSEIEKLRGSGIHTDLMHYFDEYSEGEWVEYPYFDVYDLCEKINKSENFSSKTKDLASNAMNKLNEMIVYSFGDPSNNFKEGKNGLSIFLPNGDKKYSTYYTSTKIPHWTMQSWYNSIDTVKYGLNPYGKLSWCKDGQDPEINKVGNWFELLDSWFDKTNDVTGGVNHYQW |  | produced measureable GLP-1(7-36)NH2 | 
plasmin: proteolytic enzyme cleaving at the carboxyl peptide bond of arginine residues (protein, UniProt P00747 20-580; P00747 581-810, looked up, Plasmin, proteolytic enzyme cleaving at the carboxyl peptide bond of arginine residues) Plasmin heavy chain A: EPLDDYVNTQGASLFSVTKKQLGAGSIEECAAKCEEDEEFTCRAFQYHSKEQQCVIMAENRKSSIIIRMRDVVLFEKKVYLSECKTGNGKNYRGTMSKTKNGITCQKWSSTSPHRPRFSPATHPSEGLEENYCRNPDNDPQGPWCYTTDPEKRYDYCDILECEEECMHCSGENYDGKISKTMSGLECQAWDSQSPHAHGYIPSKFPNKNLKKNYCRNPDRELRPWCFTTDPNKRWELCDIPRCTTPPPSSGPTYQCLKGTGENYRGNVAVTVSGHTCQHWSAQTPHTHNRTPENFPCKNLDENYCRNPDGKRAPWCHTTNSQVRWEYCKIPSCDSSPVSTEQLAPTAPPELTPVVQDCYHGDGQSYRGTSSTTTTGKKCQSWSSMTPHRHQKTPENYPNAGLTMNYCRNPDADKGPWCFTTDPSVRWEYCNLKKCSGTEASVVAPPPVVLLPDVETPSEEDCMFGNGKGYRGKRATTVTGTPCQDWAAQEPHRHSIFTPETNPRAGLEKNYCRNPDGDVGGPWCYTTNPRKLYDYCDVPQCAAPSFDCGKPQVEPKKCPGR Plasmin light chain B: VVGGCVAHPHSWPWQVSLRTRFGMHFCGGTLISPEWVLTAAHCLEKSPRPSSYKVILGAHQEVNLEPHVQEIEVSRLFLEPTRKDIALLKLSSPAVITDKVIPACLPSPNYVVADRTECFITGWGETQGTFGAGLLKEAQLPVIENKVCNRYEFLNGRVQSTELCAGHLAGGTDSCQGDSGGPLVCFEKDKYILQGVTSWGLGCARPNKPGVYVRVSRFVTWIEGVMRNN |  | None of these proteases produced any GLP-1(7-36)NH2 | 
